In article PMC11904948, “Peptide‐Drug Conjugate for Therapeutic Reprogramming of Tumor‐Associated Macrophages in Breast Cancer” (Advanced Science, 2025):

System: YAP
Assay: YAP immunofluorescence in BMDM
Format: cell-based, mouse
Conditions: day 5 BMDM, 10 µM 4 h, washed, confocal microscopy 3 h later
Description: We speculated that the observed in vivo effect of MACTIDE‐V could be mediated by the modulation of macrophage phenotype elicited by Verteporfin, a drug that inhibits the co‐transcription factor Yes Associated Protein (YAP), and prevents the anti‐inflammatory shift in macrophages.^[ [26] ^] We therefore analyzed the effect of MACTIDE‐V on YAP localization and phenotypic changes in mouse bone marrow‐derived macrophages (BMDM) in vitro. We first treated BMDM with MACTIDE‐V, MACTIDE, or CtrlPep‐V and evaluated changes in YAP localization 3 h later using confocal microscopy. […] These observations are consistent with the reported effect of Verteporfin sequestering YAP in the cytoplasm.^[ [27], [28] ^]
Figure 6 MACTIDE‐V promotes a YAP‐ mediated anti‐ tumoral switch in bone marrow‐derived macrophages. Day 5 BMDM were incubated for 4 h with 10 µM conjugates, washed, and followed‐up in media. A) YAP Immunofluorescence (shown in red) was analyzed 3 h after treatment and B) phagocytosis of fluorescent E. coli particles at 48 h follow‐up. C) Flow cytometry on BMDM 48 h after treatment. Left panel, GeoMean of MHC II, CD206, CD80, and PD‐L1 in Balb/c BMDM. Median ± interquartile range. […] D) Heatmap of the mRNA expression of genes involved in the functional activation of BMDM, YAP signaling, and adhesion, measured by real‐time PCR 48 h after treatment in BALB/c BMDM. n = 3 independent experiments. […]

For “Vert‐Ahx‐AKPCGS‐OH [CtrlPep‐V, reference compound]”, the YAP localization was “uniformly spread throughout the cell”.
For “Vert‐Ahx‐G(CTKSIPPIC)SPGAK‐OH (disulfide) [MACTIDE‐V]”, the YAP localization was “excluded YAP from the nucleus”.
